# Several values for one entry are separate records, joined by “and”; a condition that tells them apart may be missing. Equal entries are not always repeated. Records with an inconclusive call do not appear.
# Tested on: nude mice, LX-1 lung xenograft intrarenal, tumor weight T/C
# Experiment: NCI In Vivo Anticancer Drug Screen. Data for tumor model Human Lung LX-1 Xenograft (intrarenal inoculation) in NU/NU Swiss (nude) mice
# Conditions: endpoint: mean tumor weight change, higher = larger tumour
# Summary of the method: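 Activity was scored by measuring tumors in treated animals and in vehicle controls, then reporting the treated result as a fraction of the control result.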
# [1] = dose: 400.0 mg/kg/injection, schedule: Q01DX010 (sc), vehicle: Klucel (hydroxypropylcellulose) (HPC)
# [2] = dose: 800.0 mg/kg/injection, schedule: Q01DX010 (sc), vehicle: saline
# [3] = dose: 1600.0 mg/kg/injection, schedule: Q01DX010 (sc), vehicle: saline
# [4] = dose: 300.0 mg/kg/injection, schedule: Q04DX003 (sc), vehicle: saline with Tween-80
# [5] = dose: 600.0 mg/kg/injection, schedule: Q04DX003 (sc), vehicle: saline with Tween-80
# [6] = dose: 1200.0 mg/kg/injection, schedule: Q04DX003 (sc), vehicle: saline with Tween-80
# [7] = dose: 2400.0 mg/kg/injection, schedule: Q04DX003 (sc), vehicle: saline with Tween-80
# [8] = dose: 100.0 mg/kg/injection, schedule: Q01DX010 (sc), vehicle: saline with Tween-80
# [9] = dose: 25.0 mg/kg/injection, schedule: Q01DX010 (sc), vehicle: water
# [10] = dose: 25.0 mg/kg/injection, schedule: Q04DX003 (sc), vehicle: suspension in saline
# [11] = dose: 50.0 mg/kg/injection, schedule: Q04DX003 (sc), vehicle: suspension in saline
# [12] = dose: 2.0 mg/kg/injection, schedule: Q01DX010 (sc), vehicle: saline
# [13] = dose: 4.0 mg/kg/injection, schedule: Q01DX010 (sc), vehicle: saline
# [14] = dose: 25.0 mg/kg/injection, schedule: Q04DX003 (sc), vehicle: saline
# [15] = dose: 50.0 mg/kg/injection, schedule: Q04DX003 (sc), vehicle: saline
# [16] = dose: 100.0 mg/kg/injection, schedule: Q04DX003 (sc), vehicle: saline
# [17] = dose: 200.0 mg/kg/injection, schedule: Q04DX003 (sc), vehicle: saline
compound,measurement,setting,value
C=C(NC(=O)C(=C)NC(=O)c1csc(C2=NC3c4csc(n4)C4NC(=O)c5csc(n5)C(C(C)(O)C(C)O)NC(=O)C5CSC(=N5)/C(=C/C)NC(=O)C(C(C)O)NC(=O)c5csc(n5)C3(CC2)NC(=O)C(C)NC(=O)C(=C)NC(=O)C(C)NC(=O)C(C(C)CC)NC2C=Cc3c(C(C)O)cc(nc3C2O)C(=O)OC4C)n1)C(N)=O (stereo unspecified),T/C,"dose: 200.0 mg/kg/injection, schedule: Q01DX010 (sc), vehicle: Klucel (hydroxypropylcellulose) (HPC)",90 % of control
same,T/C,[1],65 % of control
same,T/C,"dose: 1600.0 mg/kg/injection, schedule: Q01DX010 (sc), vehicle: Klucel (hydroxypropylcellulose) (HPC)",53 % of control
CN1c2c(nc(N)[nH]c2=O)NCC1CCNc1ccc(C(=O)NC(CCC(=O)O)C(=O)O)cc1 (stereo unspecified),T/C,"dose: 100.0 mg/kg/injection, schedule: Q01DX010 (sc), vehicle: saline",82 % of control
same,T/C,"dose: 200.0 mg/kg/injection, schedule: Q01DX010 (sc), vehicle: saline",36 % of control and 41 % of control
same,T/C,"dose: 400.0 mg/kg/injection, schedule: Q01DX010 (sc), vehicle: saline",11 % of control and 36 % of control
same,T/C,[2],11 % of control
same,T/C,[3],27 % of control
Cc1ccc(NC(=O)Oc2ccc(Br)cc2Br)c([N+](=O)[O-])c1,T/C,[4],61 % of control
same,T/C,[5],98 % of control
same,T/C,[6],93 % of control
same,T/C,[7],68 % of control
CN(C)C=O,T/C,[2],91 % of control
same,T/C,[3],74 % of control
Cc1cc2nc3c(=O)[nH]c(=O)nc-3n(CC(O)C(O)C(O)C(O)CO)c2cc1C (stereo unspecified),T/C,[8],75 % of control
same,T/C,"dose: 200.0 mg/kg/injection, schedule: Q01DX010 (sc), vehicle: saline with Tween-80",92 % of control
same,T/C,"dose: 400.0 mg/kg/injection, schedule: Q01DX010 (sc), vehicle: saline with Tween-80",66 % of control
O=C(O)C(O)C(O)C1[O][Sb][O]C1C(=O)O (stereo unspecified),T/C,"dose: 37.5 mg/kg/injection, schedule: Q04DX003 (sc), vehicle: saline",106 % of control
same,T/C,"dose: 75.0 mg/kg/injection, schedule: Q04DX003 (sc), vehicle: saline",105 % of control
N#CC(C#N)=C/C=C/c1cccc([N+](=O)[O-])c1,T/C,"dose: 25.0 mg/kg/injection, schedule: Q01DX010 (sc), vehicle: Klucel (hydroxypropylcellulose) (HPC)",90 % of control
same,T/C,"dose: 50.0 mg/kg/injection, schedule: Q01DX010 (sc), vehicle: Klucel (hydroxypropylcellulose) (HPC)",83 % of control
same,T/C,"dose: 100.0 mg/kg/injection, schedule: Q01DX010 (sc), vehicle: Klucel (hydroxypropylcellulose) (HPC)",69 % of control
same,T/C,[1],84 % of control
same,T/C,"dose: 800.0 mg/kg/injection, schedule: Q01DX010 (sc), vehicle: Klucel (hydroxypropylcellulose) (HPC)",42 % of control
CN1N=C(N)c2cn(C3OC(COP(=O)(O)O)C(O)C3O)c3ncnc1c23 (stereo unspecified),T/C,"dose: 12.5 mg/kg/injection, schedule: Q01DX010 (sc), vehicle: water",107 % of control
same,T/C,[9],109 % of control
same,T/C,"dose: 50.0 mg/kg/injection, schedule: Q01DX010 (sc), vehicle: water",81 % of control
CCN(CC)CC[n+]1ccc2c(C)c3[nH]c4ccc(O)cc4c3c(C)c2c1,T/C,[10],172 % of control
same,T/C,[11],111 % of control
CC1(C)OCC2OC=CC(=O)C2O1 (stereo unspecified),T/C,[4],89 % of control
CN=C(N)N/N=C(\C)c1ccc2oc3ccc(/C(C)=N/NC(N)=NC)cc3c2c1,T/C,"dose: 75.0 mg/kg/injection, schedule: Q04DX003 (sc), vehicle: saline with Tween-80",89 % of control
same,T/C,"dose: 150.0 mg/kg/injection, schedule: Q04DX003 (sc), vehicle: saline with Tween-80",65 % of control
CC[C@@]1(O)C(=O)OCc2c1cc1n(c2=O)Cc2cc3cc(O)ccc3nc2-1,T/C,"dose: 32.0 mg/kg/injection, schedule: Q04DX003 (sc), vehicle: suspension in saline",12 % of control and 14 % of control
O=C(Nc1nncs1)c1ccncc1,T/C,"dose: 50.0 mg/kg/injection, schedule: Q01DX010 (sc), vehicle: saline with Tween-80",115 % of control
same,T/C,[8],91 % of control
COc1cc([C@@H]2c3cc4c(c(O)c3C[C@H]3COC(=O)[C@@H]32)OCO4)cc(OC)c1OC,T/C,"dose: 0.25 mg/kg/injection, schedule: Q01DX010 (sc), vehicle: saline",91 % of control
same,T/C,"dose: 0.5 mg/kg/injection, schedule: Q01DX010 (sc), vehicle: saline",50 % of control
same,T/C,"dose: 1.0 mg/kg/injection, schedule: Q01DX010 (sc), vehicle: saline",58 % of control
same,T/C,[12],71 % of control and 73 % of control
same,T/C,[13],117 % of control
same,T/C,"dose: 8.0 mg/kg/injection, schedule: Q01DX010 (sc), vehicle: saline",168 % of control
COc1cccc2c1C(=O)c1c(O)c3c(c(O)c1C2=O)C[C@@](O)(C(C)=O)C[C@@H]3OC1CC(N(Cc2ccccc2)Cc2ccccc2)C(O)C(C)O1 (stereo partly specified),T/C,[9],64 % of control
CC1=C[S+](c2ccccc2)c2cccc3cc4ccccc4c1c23 (stereo unspecified),T/C,"dose: 2.0 mg/kg/injection, schedule: Q04DX003 (sc), vehicle: saline with Tween-80",102 % of control
Cc1c(N)nc([C@H](CC(N)=O)NC[C@H](N)C(N)=O)nc1C(=O)N[C@H](C(=O)N[C@H](C)[C@@H](O)[C@H](C)C(=O)N[C@H](C(=O)NCCc1nc(-c2nc(C(=O)NCCC[S+](C)C)cs2)cs1)[C@@H](C)O)C(OC1OC(CO)C(O)C(O)C1OC1OC(CO)C(O)C(OC(N)=O)C1O)c1cnc[nH]1 (stereo partly specified),T/C,[12],14 % of control
same,T/C,[13],71 % of control
same,T/C,"dose: 16.0 mg/kg/injection, schedule: Q04DX003 (sc), vehicle: saline",49 % of control
same,T/C,"dose: 32.0 mg/kg/injection, schedule: Q04DX003 (sc), vehicle: saline",47 % of control
O=C1c2ccccc2C(=O)c2c(NCCNCCO)ccc(O)c21,T/C,"dose: 12.5 mg/kg/injection, schedule: Q04DX003 (sc), vehicle: suspension in saline",94 % of control
same,T/C,[14],90 % of control
same,T/C,[10],108 % of control
same,T/C,[15],74 % of control
same,T/C,[11],90 % of control
same,T/C,[16],61 % of control
same,T/C,"dose: 100.0 mg/kg/injection, schedule: Q04DX003 (sc), vehicle: suspension in saline",92 % of control
same,T/C,[17],93 % of control
CC(=O)N(C)c1ccc(Nc2cc(C)[nH]c3ccc4ncnc4c23)cc1,T/C,"dose: 50.0 mg/kg/injection, schedule: Q04DX003 (sc), vehicle: saline with Tween-80",101 % of control
same,T/C,"dose: 100.0 mg/kg/injection, schedule: Q04DX003 (sc), vehicle: saline with Tween-80",71 % of control
same,T/C,"dose: 200.0 mg/kg/injection, schedule: Q04DX003 (sc), vehicle: saline with Tween-80",56 % of control
Oc1ccc(O)cc1,T/C,[14],102 % of control
same,T/C,[15],85 % of control and 98 % of control
same,T/C,[16],92 % of control and 93 % of control
same,T/C,[17],109 % of control
N=[N+]=CC(=O)CCC(NC(=O)C(CCC(=O)C=[N+]=N)NC(=O)CCC(N)C(=O)O)C(=O)O (stereo unspecified),T/C,"dose: 1.6 mg/kg/injection, schedule: Q04DX003 (sc), vehicle: water",119 % of control
same,T/C,"dose: 3.2 mg/kg/injection, schedule: Q04DX003 (sc), vehicle: water",86 % of control
same,T/C,"dose: 6.4 mg/kg/injection, schedule: Q04DX003 (sc), vehicle: water",119 % of control
same,T/C,"dose: 12.8 mg/kg/injection, schedule: Q04DX003 (sc), vehicle: water",91 % of control
NC(=O)c1ncn(C2OC(CO)C(O)C2O)n1 (stereo unspecified),T/C,"dose: 300.0 mg/kg/injection, schedule: Q04DX003 (sc), vehicle: saline",85 % of control
same,T/C,"dose: 600.0 mg/kg/injection, schedule: Q04DX003 (sc), vehicle: saline",95 % of control
same,T/C,"dose: 1200.0 mg/kg/injection, schedule: Q04DX003 (sc), vehicle: saline",42 % of control
O=c1cc(-c2ccccc2)[nH]c2c1CCCC2,T/C,[4],114 % of control
same,T/C,[5],113 % of control
same,T/C,[6],113 % of control
same,T/C,[7],106 % of control
CC[PH+](CC)CC[S-].CC[PH+](CC)CC[S-].[Au+].[Au+],T/C,"dose: 40.0 mg/kg/injection, schedule: Q04DX003 (sc), vehicle: Klucel (hydroxypropylcellulose) (HPC)",105 % of control
same,T/C,"dose: 160.0 mg/kg/injection, schedule: Q04DX003 (sc), vehicle: Klucel (hydroxypropylcellulose) (HPC)",105 % of control
same,T/C,"dose: 320.0 mg/kg/injection, schedule: Q04DX003 (sc), vehicle: Klucel (hydroxypropylcellulose) (HPC)",96 % of control

# Source: PubChem BioAssay AID264 (DTP/NCI, 2004)
